Assay results taken from doi:10.1101/2020.04.28.066902v2 (bioRxiv, 2020).
Entries after “also recorded” stand apart in the source; their conditions may differ.

Experiment: Equilibrium peptide uptake in human OA cartilage explants
Type: in vitro ADME

Sequence: RKKRRQRRR [TAT-PTD]
- partitioning coefficient with 500 mM NaCl vs untreated cartilage (500 mM NaCl added to the PBS, p=0.3, n=24): not
- partitioning coefficient after trypsin treatment vs untreated cartilage (cartilage degraded in 5 mM trypsin for 24 hours prior to uptake, p=0.045, n=24): reduced; also recorded: decreased partitioning coefficients; also recorded: decreased uptake
